Patent US20210039089A1, “DEVICES, KITS, AND METHODS FOR LABEL-FREE SEPARATION AND SUBTYPING OF RARE CELLS” (University of Georgia Research Foundation, Inc., priority 2019, published 2021)
Entries after “also recorded” stand apart in the source; their conditions may differ.

What was measured:
[1] = tested on: MDA-MB-231 breast cancer cell line; experiment: MChip cancer cell migration assay, cells loaded in channel #1; format: cell-based
Experimental: The microfluidic device was pre-filled with FBS-free cell culture medium and incubated at 37° C. for 1 hour. All of the channel inlet/outlet, except cell loading inlets (top/bottom channel #1) and middle channel outlet, are sealed with tape before cell loading. Cancer cells were collected from culture plates with 0.25% Trypsin-EDTA (ThermoFisher, Waltham, Mass.) and pelleted by centrifugation at 500 g for 5 minutes. Then, the cells were re-suspended in FBS-free culture medium, DMEM or RPMI (ThermoFisher, Waltham, Mass.), to a concentration of 5×10^5 cells/mL. 50 μL of cell suspension was pipetted into the cell loading channels. One syringe pump (Chemyx, Stafford, Tex.) was connected to the middle channel outlet and the flow rate was 5 μL/min. When all entrances of migration channels were filled with cancer cells, the pump was stopped and the cell suspension was replaced with FBS-free cell culture medium. The device was then placed in the incubator (37° C., 5% CO2) for 40 min to ensure the cell adhesion to the glass slide. Then, the tape/covers were removed from the cell loading outlet and middle inlet, and these inlets were connected with syringe pumps. The FBS-free medium flowed into the cell loading channel while the middle channel was filled with medium containing 10% FBS. The flow rates for 3 channels were 0.1 μL/min. The entire chip was placed in the cell culture incubator (37° C., 5% CO2) for about 24 hours. […]
Since migration time^14, 21 and FBS concentration were key parameters that determined the final position of individual cells, a series experiment were conducted to test the influence of different FBS concentrations (0%, 5%, and 10%) and various working time (6 hr, 12 hr, and 24 hr). […] It is noteworthy that cell migratory behaviors were also determined by the glass coating method, for example, coating using different concentrations of collagen and poly-L-Lysine (FIG. 7). […]

[2] = tested on: WBCs; experiment: MChip purification assay, cells loaded in middle channel, WBC readout; format: cell-based, human
Experimental: (§1) WBCs and MDA-MB-231 cancer cells were mixed at a 1:1 ratio in FBS-free DMEM medium and loaded to the top edge of the middle/main channel. The positions of these cells were determined by an optimized flow rate and open/close of channel inlets/outlets. Briefly, the microfluidic device was filled with cell culture medium and incubator at 37° C. for one hour. Sealed all the inlet/outlets except cell loading inlet (middle/main channel) and channel #1 outlet (top). 50 μL cell mixture was loaded into cell loading inlet and the cell alignment was achieved using a syringe pump (5 μL/min) that connected to the channel #1 outlet (top). Then replaced the cell suspension with FBS-free medium and incubated for 30 minutes. The FBS-free medium flowed into the middle channel, the top channel (first outer channel) #1 was filled with medium containing 10% FBS, and the bottom channel (second outer channel) […] was filled with FBS-free medium containing FMLP (200 ng/mL). The flow rates for 3 channels were 0.1 μL/min. The cells were incubated at 37° C. for 24 hours.
The blood sample was drawn from multiple healthy donors in compliance with the applicable federal, state, and institutional policies and procedures in the United States. Healthy human blood samples were obtained from the Clinical and Translational Research Unit of the University of Georgia with informed consent according to an IRB-approved protocol. The collected blood samples were stored in vacutainer K2-EDTA (BD, Franklin Lakes, N.J.). Complete blood count (CBC) reported was obtained to determine the number & subtypes of WBCs. The blood processing with iFCS was discussed in our previous work (Zhao, et al., Lab on a Chip 2019, 19 (10), 1860-76, incorporated by reference above).^10
(§2) To retrieve the cancer cells of heterogeneously migratory properties with low WBCs contamination, the cell loading channel and “chemos” loading channel (middle, #9) were swapped: cells was loaded to the top part of the middle channel (#9) while the serum was loaded into side channels (top/bottom, #1). […]

[3] = tested on: MDA-MB-231 cancer cells; experiment: MChip purification assay, cells loaded in middle channel, cancer cell readout; format: cell-based; details: FMLP vs control; FIG. 14
Experimental: as §1, §2

[4] = tested on: WBCs; experiment: MChip WBC migration assay, cells loaded in channel #1; format: cell-based, human
Experimental: FIGS. 6A-6H illustrate purification of circulating tumor cells isolated from human blood using iFCS separation and an embodiment of a device of the present disclosure. FIG. 6A is images validation of combination effect of using iFCS and a device of the present disclosure with cultured cancer cells spiked into healthy blood. Left, an iFCS device was used to recover more than 99.2% spiked cancer cells and deplete many WBCs (˜500 cells per mL). Collected cancer cells and WBCs were injected into the “MChip” of the present disclosure to further purify CTC by removing most remaining WBCs based on different migratory abilities, as shown in the right image. Migratory cancer cells could be retrieved with high purity. FIG. 6B is a graph comparing migratory abilities for cells before and after iFCS processing. […] FIG. 6C illustrates WBC (n=-5000, channel #1 loading) migration assays under control (FBS only), WBC chemo-attractant (FM LP) and WBC chemo-repellent (Slit2). FBS (10%) or Slit2 (5 μg/mL) were loaded into the middle channel (channel #9), while FMLP (200 ng/mL) were filled in the […]. Only the WBCs of >200 μm Y position were counted. […] Right, images of WBCs 24-hour migration assay using Slit2 (5 μg/mL) in 10% FBS. Flow rate v=0.1 μL/min. WBCs were stained with cell tracker red. Fluorescence images were taken at 0 hour and 24 hours. Circles indicate the migratory WBCs. FIG. 6D is a graph illustrating breast cancer cells, MDA-MB-231, loaded into channel #1 with Slit2 (5 μg/mL) in 10% FBS in the middle channel. Flow rate v=0.1 μL/min. The graph indicates positions of MDA-MB-231 and the rectangular symbols indicate the mean value. FIG. 6E is an image of WBCs (red) and MDA-MB-231 (green) mixture (1:1) migration assay with middle channel (channel #9) filled with 10% FBS and Slit2 (5 μg/mL). At 24 hours, most of the migratory cancer cells moved into the migration/collection channels with ˜2 WBCs contamination. FIG. 6F illustrates a WBC migration assay using FBS, FMLP, and Slit2. WBCs (n=˜2500) loaded into the top edge of the middle channel. […]

[5] = 1:1 mixture, 10% FBS top channel, 0% FBS middle, 0% FBS + FMLP (200 ng/mL) bottom, 24 hours

Question: With collagen as the molecule, how does the “average migration distance by glass coating method” value ([1]; collagen vs poly-L-Lysine coating at different concentrations, FIG. 7) read?
Answer: Its value is “largest”.

Question: Which “WBCs moved to the bottom part” value [2, 5] does the source give for fMet-Leu-Phe [FMLP] here?
Answer: The value was 88.3%.

Question: What about the “WBCs stayed in the middle loading channel” value [2, 5] of the same molecule?
Answer: Its value is 11.2%.

Question: And the “effect on WBC migration direction” value ([2]; FMLP in bottom side channel, WBCs loaded at top edge of middle channel, FIG. 6F)?
Answer: The value was “attract the majority of WBCs to the bottom part; also recorded: significant performance in inducing cells toward the bottom channel”.

Question: What about the “effect on MDA-MB-231 migration” value [3] of the same molecule?
Answer: The value was “without a negative effect”.

B1: slit2: Slit guidance ligand 2, chemo-repellent for WBCs, neutrophil inhibitor (protein, UniProt O94813 31-1529, looked up)
Slit homolog 2 protein: QCSCSGSTVDCHGLALRSVPRNIPRNTERLDLNGNNITRITKTDFAGLRHLRVLQLMENKISTIERGAFQDLKELERLRLNRNHLQLFPELLFLGTAKLYRLDLSENQIQAIPRKAFRGAVDIKNLQLDYNQISCIEDGAFRALRDLEVLTLNNNNITRLSVASFNHMPKLRTFRLHSNNLYCDCHLAWLSDWLRQRPRVGLYTQCMGPSHLRGHNVAEVQKREFVCSGHQSFMAPSCSVLHCPAACTCSNNIVDCRGKGLTEIPTNLPETITEIRLEQNTIKVIPPGAFSPYKKLRRIDLSNNQISELAPDAFQGLRSLNSLVLYGNKITELPKSLFEGLFSLQLLLLNANKINCLRVDAFQDLHNLNLLSLYDNKLQTIAKGTFSPLRAIQTMHLAQNPFICDCHLKWLADYLHTNPIETSGARCTSPRRLANKRIGQIKSKKFRCSAKEQYFIPGTEDYRSKLSGDCFADLACPEKCRCEGTTVDCSNQKLNKIPEHIPQYTAELRLNNNEFTVLEATGIFKKLPQLRKINFSNNKITDIEEGAFEGASGVNEILLTSNRLENVQHKMFKGLESLKTLMLRSNRITCVGNDSFIGLSSVRLLSLYDNQITTVAPGAFDTLHSLSTLNLLANPFNCNCYLAWLGEWLRKKRIVTGNPRCQKPYFLKEIPIQDVAIQDFTCDDGNDDNSCSPLSRCPTECTCLDTVVRCSNKGLKVLPKGIPRDVTELYLDGNQFTLVPKELSNYKHLTLIDLSNNRISTLSNQSFSNMTQLLTLILSYNRLRCIPPRTFDGLKSLRLLSLHGNDISVVPEGAFNDLSALSHLAIGANPLYCDCNMQWLSDWVKSEYKEPGIARCAGPGEMADKLLLTTPSKKFTCQGPVDVNILAKCNPCLSNPCKNDGTCNSDPVDFYRCTCPYGFKGQDCDVPIHACISNPCKHGGTCHLKEGEEDGFWCICADGFEGENCEVNVDDCEDNDCENNSTCVDGINNYTCLCPPEYTGELCEEKLDFCAQDLNPCQHDSKCILTPKGFKCDCTPGYVGEHCDIDFDDCQDNKCKNGAHCTDAVNGYTCICPEGYSGLFCEFSPPMVLPRTSPCDNFDCQNGAQCIVRINEPICQCLPGYQGEKCEKLVSVNFINKESYLQIPSAKVRPQTNITLQIATDEDSGILLYKGDKDHIAVELYRGRVRASYDTGSHPASAIYSVETINDGNFHIVELLALDQSLSLSVDGGNPKIITNLSKQSTLNFDSPLYVGGMPGKSNVASLRQAPGQNGTSFHGCIRNLYINSELQDFQKVPMQTGILPGCEPCHKKVCAHGTCQPSSQAGFTCECQEGWMGPLCDQRTNDPCLGNKCVHGTCLPINAFSYSCKCLEGHGGVLCDEEEDLFNPCQAIKCKHGKCRLSGLGQPYCECSSGYTGDSCDREISCRGERIRDYYQKQQGYAACQTTKKVSRLECRGGCAGGQCCGPLRSKRRKYSFECTDGSSFVDEVEKVVKCGCTRCVS
Question: Which results are given for B1?
Answer: WBCs contamination in migration/collection channels ([4]; WBCs and MDA-MB-231 mixture (1:1), middle channel 10% FBS and Slit2 (5 μg/mL), 24 hours): ~2 WBCs; loaded WBCs remaining in the loading channel with non-migratory cells ([4]; middle channel 10% FBS and 5 μg/mL slit2): 99.6%; WBCs that left the cell loading channel (#1) ([4]; middle channel loaded with 10% FBS and 5 μg/mL slit2, 24 hours, 0.1 μL/min): 0.4%; cancer cells squeezed into the migration channel ([1]; 5 μg/mL slit2 in 10% FBS in middle channel, 0.1 μL/min): 85%; effect on migratory behavior of MDA-MB-231 cancer cells ([1]; 5 μg/mL slit2 in 10% FBS in middle channel, P=0.004): slightly compromise
